ChEMBL document CHEMBL1201862, “PubChem BioAssay data set” (2004)
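These data come from cells grown in 96-well plates and exposed to compound for 48 hours at five concentrations. GI50 marks 50% less growth.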 Activity calls are given as the source filed them. Rule as the data show it: active = GI50 up to about 1.1 µM and inactive = higher.

Experiments:
Test in all cases: NCI anticancer screen, dose series, 48 h
[1] = test system: BT-549
[2] = test system: NCI-H522
[3] = test system: HL-60
[4] = test system: MCF7
[5] = test system: HOP-62
[6] = test system: MOLT-4
[7] = test system: SW-620
[8] = test system: UACC-62
[9] = test system: UO-31
[10] = test system: NCI-H226
[11] = test system: EKVX
[12] = test system: PC-3
[13] = test system: OVCAR-8
[14] = test system: SF-539
[15] = test system: OVCAR-4
[16] = test system: 786-0
[17] = test system: OVCAR-3
[18] = test system: NCI-H460
[19] = test system: Malme-3M
[20] = test system: A498
[21] = test system: K562
[22] = test system: NCI-H23
[23] = test system: SNB-75
[24] = test system: COLO 205
[25] = test system: M14
[26] = test system: MDA-MB-435
[27] = test system: OVCAR-5
[28] = test system: UACC-257
[29] = test system: SN12C
[30] = test system: A549
[31] = test system: KM12
[32] = test system: SNB-19
[33] = test system: HCT-116
[34] = test system: TK-10
[35] = test system: CAKI-1
[36] = test system: DU-145
[37] = test system: SK-MEL-28
[38] = test system: SF-268
[39] = test system: Hs-578T
[40] = test system: CCRF-CEM
[41] = test system: SR
[42] = test system: HCT-15
[43] = test system: T47D
[44] = test system: IGROV-1
[45] = test system: SK-MEL-2
[46] = test system: HT-29
[47] = test system: SF-295
[48] = test system: MDA-MB-231
[49] = test system: MDA-N
[50] = test system: ACHN
[51] = test system: SK-OV-3
[52] = test system: NCI/ADR-RES
[53] = test system: LOX IMVI
[54] = test system: RXF 393
[55] = test system: HOP-92
[56] = test system: U-251
[57] = test system: SK-MEL-5
[58] = test system: RPMI-8226
[59] = test system: HCC 2998

## C=CC(Br)(CBr)CCC(Br)C(C)C (stereo unspecified)
[1]
  GI50: 3.14 µM (inactive)
[2]
  GI50: 1.49 µM (inactive)
[3]
  GI50: 0.769 µM (active)
[4]
  GI50: 1.82 µM (inactive)
[5]
  GI50: 3.18 µM (inactive)
[6]
  GI50: 1.91 µM (inactive)
[7]
  GI50: 2.2 µM (inactive)
[8]
  GI50: 3.12 µM (inactive)
[9]
  GI50: 13 µM (inactive)
[10]
  GI50: 16.6 µM (inactive)
[11]
  GI50: 18.3 µM (inactive)
[12]
  GI50: 7 µM (inactive)
[13]
  GI50: 2.44 µM (inactive)
[14]
  GI50: 2.66 µM (inactive)
[15]
  GI50: 4.9 µM (inactive)
[16]
  GI50: 1.58 µM (inactive)
[17]
  GI50: 4.5 µM (inactive)
[18]
  GI50: 4.71 µM (inactive)
[19]
  GI50: 13.5 µM (inactive)
[20]
  GI50: 18.7 µM (inactive)
[21]
  GI50: 2.11 µM (inactive)
[22]
  GI50: 6.82 µM (inactive)
[23]
  GI50: 1.95 µM (inactive)
[24]
  GI50: 5.93 µM (inactive)
[25]
  GI50: 4.16 µM (inactive)
[26]
  GI50: 5.21 µM (inactive)
[27]
  GI50: 15.6 µM (inactive)
[28]
  GI50: 8.18 µM (inactive)
[29]
  GI50: 10.7 µM (inactive)
[30]
  GI50: 14.1 µM (inactive)
[31]
  GI50: 2.18 µM (inactive)
[32]
  GI50: 9.84 µM (inactive)
[33]
  GI50: 5.57 µM (inactive)
[34]
  GI50: 3.13 µM (inactive)
[35]
  GI50: 6.58 µM (inactive)
[36]
  GI50: 8.55 µM (inactive)
[37]
  GI50: 3.49 µM (inactive)
[38]
  GI50: 5.48 µM (inactive)
[39]
  GI50: 2.64 µM (inactive)
[40]
  GI50: 0.822 µM (active)
[41]
  GI50: 1.62 µM (inactive)
[42]
  GI50: 4.66 µM
[43]
  GI50: 0.333 µM (active)
[44]
  GI50: 3.46 µM (inactive)
[45]
  GI50: 2.96 µM (inactive)
[46]
  GI50: 2.79 µM (inactive)
[47]
  GI50: 4.26 µM (inactive)
[48]
  GI50: 4.27 µM (inactive)
[49]
  GI50: 2.07 µM (inactive)
[50]
  GI50: 8.15 µM (inactive)
[51]
  GI50: 16.6 µM (inactive)
[52]
  GI50: 7.85 µM (inactive)
[53]
  GI50: 1.53 µM (inactive)
[54]
  GI50: 5.89 µM (inactive)
[55]
  GI50: 10.7 µM (inactive)
[56]
  GI50: 3.66 µM (inactive)
[57]
  GI50: 5.24 µM (inactive)
[58]
  GI50: 1.25 µM (inactive)

## CC(C)=CCC[C@@H](C)C1=C(O)C(=O)C(C)=C(Nc2ccccc2I)C1=O
[1]
  GI50: 23.6 µM (inactive)
[3]
  GI50: 2.19 µM (inactive)
[4]
  GI50: 23.2 µM (inactive)
[5]
  GI50: 7.59 µM (inactive)
[6]
  GI50: 2.22 µM (inactive)
[7]
  GI50: 21.9 µM (inactive)
[8]
  GI50: 9.27 µM (inactive)
[9]
  GI50: 10.1 µM (inactive)
[10]
  GI50: 5.42 µM (inactive)
[59]
  GI50: 16.6 µM (inactive)
[11]
  GI50: 18.2 µM (inactive)
[12]
  GI50: 5.61 µM (inactive)
[13]
  GI50: 3.08 µM (inactive)
[14]
  GI50: 9.23 µM (inactive)
[15]
  GI50: 5.01 µM (inactive)
[16]
  GI50: 13.5 µM (inactive)
[17]
  GI50: 4.6 µM (inactive)
[18]
  GI50: 10.1 µM (inactive)
[19]
  GI50: 12.2 µM (inactive)
[20]
  GI50: 5.43 µM (inactive)
[21]
  GI50: 12.5 µM (inactive)
[22]
  GI50: 6.05 µM (inactive)
[23]
  GI50: 6.14 µM (inactive)
[24]
  GI50: 15.5 µM (inactive)
[25]
  GI50: 17 µM (inactive)
[26]
  GI50: 21.5 µM (inactive)
[27]
  GI50: 38.2 µM (inactive)
[28]
  GI50: 16.3 µM (inactive)
[29]
  GI50: 16.7 µM (inactive)
[30]
  GI50: 11.8 µM (inactive)
[31]
  GI50: 7.55 µM (inactive)
[32]
  GI50: 25.4 µM (inactive)
[33]
  GI50: 11.8 µM (inactive)
[34]
  GI50: 22.1 µM (inactive)
[35]
  GI50: 12.9 µM (inactive)
[36]
  GI50: 23.4 µM (inactive)
[37]
  GI50: 18.3 µM (inactive)
[38]
  GI50: 11.3 µM (inactive)
[39]
  GI50: 9.12 µM (inactive)
[40]
  GI50: 3.03 µM (inactive)
[41]
  GI50: 1.3 µM (inactive)
[42]
  GI50: 6.56 µM
[43]
  GI50: 8.2 µM (inactive)
[44]
  GI50: 3.41 µM (inactive)
[45]
  GI50: 10.8 µM (inactive)
[46]
  GI50: 14 µM (inactive)
[47]
  GI50: 4.22 µM (inactive)
[48]
  GI50: 23.8 µM (inactive)
[49]
  GI50: 21.2 µM (inactive)
[50]
  GI50: 16.4 µM (inactive)
[51]
  GI50: 18.5 µM (inactive)
[52]
  GI50: 2.28 µM (inactive)
[53]
  GI50: 5.73 µM (inactive)
[54]
  GI50: 13.2 µM (inactive)
[55]
  GI50: 14.5 µM (inactive)
[56]
  GI50: 7.01 µM (inactive)
[57]
  GI50: 9.79 µM (inactive)
[58]
  GI50: 9.1 µM (inactive)
